Experimental data as given in patent publication US10039283B2, “Substituted pyrazolyl-nicotin(thio)amide derivatives and their use as fungicides” (BAYER CROPSCIENCE AKTIENGESELLSCHAFT, priority 2014, dated 2018).

Key:
[1] = Log P by HPLC on reversed phase, method [b], neutral range (0.001 molar ammonium acetate); assay type: physicochemical
Procedure: Measurement of Log P values was performed according to EEC directive 79/831 Annex V.A8 by HPLC (High Performance Liquid Chromatography) on reversed phase columns with the following methods: [b] Log P value is determined by measurement of LC-UV, in a neutral range, with 0.001 molar ammonium acetate solution in water and acetonitrile as eluent (linear gradient from 10% acetonitrile to 95% acetonitrile). Calibration was done with straight-chain alkan2-ones (with 3 to 16 carbon atoms) with known Log P values (measurement of Log P values using retention times with linear interpolation between successive alkanones). Lambda-max-values were determined using UV-spectra from 200 nm to 400 nm and the peak values of the chromatographic signals.

[2] = Log P by HPLC on reversed phase, method [a], acidic range (0.1% formic acid); assay type: physicochemical; conditions: LC-UV, 0.1% formic acid in water and acetonitrile

SMILES | LogP [1] | LogP [2]
O=C(Nc1cnn(-c2c(F)cccc2F)c1C(F)(F)F)c1cccnc1C(F)(F)F [Example 19] | 2.72^[b] | 2.79^[a];
O=C(Nc1cnn(-c2ccccc2Cl)c1C(F)(F)F)c1cccnc1C(F)(F)F [Example 20] | 2.80^[b] | 2.87^[a];
CCc1ccc(-n2ncc(NC(=O)c3cccnc3C(F)F)c2C(F)(F)F)cc1 [Example 255] | – | 3.19^[a]

Now from value to compound:

LogP [1] | LogP [2] | SMILES
2.43^[b] | 2.50^[a]; | O=C(Nc1cnn(-c2c(F)cccc2F)c1C(F)(F)F)c1cccnc1C(F)F [Example 21]
1.68^[b] | 1.71^[a]; | Cc1c(NC(=O)c2cccnc2C(F)F)cnn1-c1ccccc1F [Example 22]
2.53^[b] | 2.58^[a]; | O=C(Nc1cnn(-c2ccccc2Cl)c1C(F)(F)F)c1cccnc1C(F)F [Example 77]
